Assay results taken from patent US20250019382A1, “NOVEL INHIBITORS OF CYCLIN-DEPENDENT KINASES” (Origenis Gmbh, priority 2021, published 2025).

Experiments:
[1] = target: T1, CDK9/CyclinT1 (Homo sapiens, UniProt P50750); assay: CDK9/T1 ADPGlo kinase assay; type: biochemical; details: CDK9/CyclinT1 6 nM, ATP 10 microM, PDKtide 40 microM, 120 min RT
T1 construct: purchased ProQinase/Reaction Biology, USA #0371-0345-1
Procedure: The testing compound was evaluated in 12 concentrations in a 1:3 dilution series, starting from 5microM as the highest concentration.
In a white 384 microplate (Greiner bio-one, Austria #784904,) with 2 microL of 3-fold concentrated CDK9/CyclinT1 (ProQinase/Reaction Biology, USA #0371-0345-1, LOT.: 012), final concentration (f.c.) 6 nM, in 1×kinase buffer, 2 microL of compound (3× fold concentrated in f.c. 1.66% DMSO/H2O) was added and incubated at Room Temperature (RT) for 10 min. Then 2 microL of Substrate/ATP-Mix (3×PDKtide f.c. 40 microM, SignalChem Biotech, Canada via Biozol, Eching, Germany #P10-58, LOT.: L2230-7 and 3×UltraPure ATP f.c. 10 microM (ADP Glo Kinase assay, Promega GmbH, Germany #V9102)) were added, mixed and incubated for 120 min at RT.
After incubation time, 5 microL of ADP Glo reagent (ready to use, ADP Glo Kinase assay, Promega GmbH, Germany #V9102) were added, mixed and incubated for 40 min at RT.
In the last step, 10 microL of ADP Glo Detection reagent (ready to use, ADP Glo Kinase assay, Promega GmbH, Germany #V9102) were added, mixed and incubated for 30 min at RT.
GloMax Discover GM3000 Reader (Promega GmbH, Germany 9700000249) was used for the readout.
The inhibitor concentration was plotted against the luminescence to determine the IC50 using XLFit 5.5 (IDBS, Guildford) to fit to a sigmoidal dose response curve with a variable slope.

[2] = target: T2, CDK2/cyclin A1 (Homo sapiens, UniProt P24941); assay: CDK2/cyclin A1 LanthaScreen (SelectScreen); type: binding; details: first list; duplicate, averaged
T2 construct: purchased Invitrogen Ltd., Paisley, UK (SelectScreen service)
Procedure: (§1) The CDK2 inhibitory activity of the compounds of the invention was measured in combination with different […] and assay systems. The SelectScreen™ assessment of the kinase inhibitory activity of CDK2 data point was performed in duplicate and averaged data is reported here. The SelectScreen™ kinase inhibitor assay service was used (Invitrogen Ltd., Paisley, UK) to investigate the ability of the compounds of the invention to inhibit CDK2 in dose dependent manner using ten inhibitor concentrations from 10 micromolar down to […] in half-logarithmic steps. The inhibitor concentration was plotted against the percent inhibition or displacement to determine the IC50 using XLFit 5.5 (IDBS, Guildford) to fit to a sigmoidal dose response curve with a variable slope.

[3] = target: T3, CDK2/cyclin A (Homo sapiens, UniProt P24941); assay: CDK2/cyclin A Z'-LYTE (SelectScreen); type: biochemical; details: duplicate, averaged
T3 construct: purchased Invitrogen Ltd., Paisley, UK (SelectScreen service)
Procedure: as §1

[4] = target: T4, CDK2/cyclin E1 (Homo sapiens, UniProt P24941); assay: CDK2/cyclin E1 LanthaScreen (SelectScreen); type: binding; details: duplicate, averaged
T4 construct: purchased Invitrogen Ltd., Paisley, UK (SelectScreen service)
Procedure: as §1

[5] = target: T2, CDK2/cyclin A1; assay: CDK2/cyclin A1 LanthaScreen (SelectScreen), second list; type: binding; details: second list under the same heading; duplicate, averaged
Procedure: as §1

T1 sequence (P50750 whole entry): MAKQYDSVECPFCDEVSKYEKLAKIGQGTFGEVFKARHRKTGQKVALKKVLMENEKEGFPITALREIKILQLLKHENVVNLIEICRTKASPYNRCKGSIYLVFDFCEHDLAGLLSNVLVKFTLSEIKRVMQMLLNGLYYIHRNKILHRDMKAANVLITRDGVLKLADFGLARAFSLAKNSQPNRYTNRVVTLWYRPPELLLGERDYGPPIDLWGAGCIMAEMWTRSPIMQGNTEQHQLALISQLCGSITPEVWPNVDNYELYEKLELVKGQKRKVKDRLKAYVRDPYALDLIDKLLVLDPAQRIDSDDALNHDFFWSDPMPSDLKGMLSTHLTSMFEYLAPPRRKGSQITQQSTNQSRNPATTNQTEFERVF
T1 sequence (O60563 whole entry partner): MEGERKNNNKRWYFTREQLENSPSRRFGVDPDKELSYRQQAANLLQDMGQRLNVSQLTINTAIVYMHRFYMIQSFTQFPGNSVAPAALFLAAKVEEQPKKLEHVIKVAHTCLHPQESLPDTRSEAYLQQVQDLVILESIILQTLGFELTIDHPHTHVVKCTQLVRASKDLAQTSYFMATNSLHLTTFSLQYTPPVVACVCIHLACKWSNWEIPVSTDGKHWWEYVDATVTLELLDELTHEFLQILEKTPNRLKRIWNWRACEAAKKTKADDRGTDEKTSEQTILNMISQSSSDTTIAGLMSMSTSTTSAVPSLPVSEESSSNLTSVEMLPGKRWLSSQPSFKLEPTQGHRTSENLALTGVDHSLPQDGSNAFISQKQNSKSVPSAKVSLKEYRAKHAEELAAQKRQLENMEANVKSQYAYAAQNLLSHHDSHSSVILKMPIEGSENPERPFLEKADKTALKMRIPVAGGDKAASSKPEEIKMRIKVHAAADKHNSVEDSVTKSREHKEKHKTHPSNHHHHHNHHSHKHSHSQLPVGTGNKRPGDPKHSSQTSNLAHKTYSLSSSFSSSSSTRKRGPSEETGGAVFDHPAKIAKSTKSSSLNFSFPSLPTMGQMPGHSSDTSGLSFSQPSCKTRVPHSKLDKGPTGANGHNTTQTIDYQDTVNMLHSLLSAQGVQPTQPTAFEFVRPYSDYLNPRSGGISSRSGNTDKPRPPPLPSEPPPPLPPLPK

For Fc1cccc(F)c1-c1nc(N[C@H]2CC[C@H](N3CCOCC3)CC2)n2ncc(Cl)c2n1 [Example #89, 8-chloro-2-(2,6-difluorophenyl)-N-((1r,4r)-4-morpholinocyclohexyl)pyrazolo[1,5-a][1,3,5]triazin-4-amine], the IC50 [1] was less than 20 nM, the IC50 [2] was less than 1000 nM and the IC50 [3] was less than 1000 nM. For the same compound, the IC50 [4] was less than 200 nM and the IC50 [5] was less than 200 nM.

N[C@H]1CC[C@H](Nc2nc(-c3c(F)cccc3F)nc3c(Cl)cnn23)CC1 [Example #108, (1r,4r)-N1-(8-chloro-2-(2,6-difluorophenyl)pyrazolo[1,5-a][1,3,5]triazin-4-yl)cyclohexane-1,4-diamine] showed an IC50 [1] of less than 20 nM, an IC50 [2] of less than 200 nM and an IC50 [3] of less than 200 nM. It also gave an IC50 [4] of less than 200 nM and an IC50 [5] of less than 20 nM.

CN(C)[C@H]1CC[C@H](Nc2nc(-c3c(F)cccc3F)nc3c(Cl)cnn23)CC1 [Example #109, (1r,4r)-N1-(8-chloro-2-(2,6-difluorophenyl)pyrazolo[1,5-a][1,3,5]triazin-4-yl)-N4,N4-dimethylcyclohexane-1,4-diamine] showed an IC50 [1] of less than 20 nM, an IC50 [2] of less than 1000 nM and an IC50 [3] of less than 1000 nM. It also gave an IC50 [4] of less than 200 nM and an IC50 [5] of less than 200 nM.

For Fc1cccc(F)c1-c1nc(N[C@H]2CC[C@@H](N3CCCCC3)CC2)n2ncc(Cl)c2n1 [Example #113, 8-chloro-2-(2,6-difluorophenyl)-N-((1s,4s)-4-(piperidin-1-yl)cyclohexyl)pyrazolo[1,5-a][1,3,5]triazin-4-amine], the IC50 [1] was less than 1000 nM.

With Cn1cc(Nc2nc(-c3c(F)cccc3F)nc3c(C(F)(F)F)cnn23)cn1 [Example #115, 2-(2,6-difluorophenyl)-N-(1-methyl-1H-pyrazol-4-yl)-8-(trifluoromethyl)pyrazolo[1,5-a][1,3,5]triazin-4-amine] the IC50 [1] was less than 1000 nM.

In the case of N[C@@H]1CC[C@@H](Nc2nc(-c3c(F)cccc3F)nc3c(Cl)cnn23)C1 [Example #116, (1R,3R)-N1-(8-chloro-2-(2,6-difluorophenyl)pyrazolo[1,5-a][1,3,5]triazin-4-yl)cyclopentane-1,3-diamine], the IC50 [1] is reported as less than 20 nM.

Compound NC1CCC(Nc2nc(-c3c(F)cccc3F)nc3c(Cl)cnn23)C1 (centres unmarked) [Example #117, N1-(8-chloro-2-(2,6-difluorophenyl)pyrazolo[1,5-a][1,3,5]triazin-4-yl)cyclopentane-1,3-diamine] has an IC50 [1] of less than 20 nM.

In the case of N[C@H]1CC[C@H](Nc2nc(-c3c(F)cccc3F)nc3c(C(F)(F)F)cnn23)CC1 [Example #118, (1r,4r)-N1-(2-(2,6-difluorophenyl)-8-(trifluoromethyl)pyrazolo[1,5-a][1,3,5]triazin-4-yl)cyclohexane-1,4-diamine], the IC50 [1] is reported as less than 20 nM.

Compound CN(C)[C@@H]1CC[C@@H](Nc2nc(-c3c(F)cccc3F)nc3c(Cl)cnn23)C1 [Example #119, (1R,3R)-N1-(8-chloro-2-(2,6-difluorophenyl)pyrazolo[1,5-a][1,3,5]triazin-4-yl)-N3,N3-dimethylcyclopentane-1,3-diamine] has an IC50 [1] of less than 20 nM.

Compound CN(C)[C@H]1CC[C@H](Nc2nc(-c3c(F)cccc3F)nc3c(C(F)(F)F)cnn23)CC1 [Example #120, (1r,4r)-N1-(2-(2,6-difluorophenyl)-8-(trifluoromethyl)pyrazolo[1,5-a][1,3,5]triazin-4-yl)-N4,N4-dimethylcyclohexane-1,4-diamine] has an IC50 [1] of less than 200 nM.

Compound N[C@@H]1CC[C@H](Nc2nc(-c3c(F)cccc3F)nc3c(Cl)cnn23)C1 [Example #125, (1S,3R)-N1-(8-chloro-2-(2,6-difluorophenyl)pyrazolo[1,5-a][1,3,5]triazin-4-yl)cyclopentane-1,3-diamine] has an IC50 [1] of less than 200 nM.

For OCCN[C@H]1CC[C@H](Nc2nc(-c3c(F)cccc3F)nc3c(Cl)cnn23)CC1 [Example #127, 2-(((1r,4r)-4-((8-chloro-2-(2,6-difluorophenyl)pyrazolo[1,5-a][1,3,5]triazin-4-yl)amino)cyclohexyl)amino)ethan-1-ol], the IC50 [1] was less than 20 nM.

In the case of NC1CC(Nc2nc(-c3c(F)cccc3F)nc3c(Cl)cnn23)C1 (centres unmarked) [Example #129, (1r,3r)-N1-(8-chloro-2-(2,6-difluorophenyl)pyrazolo[1,5-a][1,3,5]triazin-4-yl)cyclobutane-1,3-diamine], the IC50 [1] is reported as less than 20 nM.

CN(C)[C@H]1C[C@H](Nc2nc(-c3c(F)cccc3F)nc3c(Cl)cnn23)C1 [Example #130, (1r,3r)-N1-(8-chloro-2-(2,6-difluorophenyl)pyrazolo[1,5-a][1,3,5]triazin-4-yl)-N3,N3-dimethylcyclobutane-1,3-diamine] gave an IC50 [1] of less than 200 nM.

Work on CN(C)C1CCC(Nc2nc(-c3c(F)cc(F)cc3F)nc3c(Cl)cnn23)CC1 (centres unmarked) [Example #131, (1r,4r)-N1-(8-chloro-2-(2,4,6-trifluorophenyl)pyrazolo[1,5-a][1,3,5]triazin-4-yl)-N4,N4-dimethylcyclohexane-1,4-diamine] yielded an IC50 [1] of less than 200 nM.

Cc1cc(F)c(-c2nc(NC3CCC(N(C)C)CC3)n3ncc(Cl)c3n2)c(F)c1 (centres unmarked) [Example #132, (1r,4r)-N1-(8-chloro-2-(2,6-difluoro-4-methylphenyl)pyrazolo[1,5-a][1,3,5]triazin-4-yl)-N4,N4-dimethylcyclohexane-1,4-diamine] gave an IC50 [1] of less than 200 nM.

For CN(CCO)C1CCC(Nc2nc(-c3c(F)cccc3F)nc3c(Cl)cnn23)CC1 (centres unmarked) [Example #133, 2-(((1r,4r)-4-((8-chloro-2-(2,6-difluorophenyl)pyrazolo[1,5-a][1,3,5]triazin-4-yl)amino)cyclohexyl)(methyl)amino)ethan-1-ol], the IC50 [1] was less than 20 nM.

CN(CCCO)C1CCC(Nc2nc(-c3c(F)cccc3F)nc3c(Cl)cnn23)CC1 (centres unmarked) [Example #134, 3-({4-[8-Chloro-2-(2,6-difluoro-phenyl)-pyrazolo[1,5-a][1,3,5]triazin-4-ylamino]-cyclohexyl}-methyl-amino)-propan-1-ol] gave an IC50 [1] of less than 20 nM.

CN(CCCF)[C@H]1CC[C@H](Nc2nc(-c3c(F)cccc3F)nc3c(Cl)cnn23)CC1 [Example #135, (1r,4r)-N1-(8-chloro-2-(2,6-difluorophenyl)pyrazolo[1,5-a][1,3,5]triazin-4-yl)-N4-(3-fluoropropyl)-N4-methylcyclohexane-1,4-diamine] showed an IC50 [1] of less than 20 nM.

Fc1cccc(F)c1-c1nc(NC2CCC(N3CCCC3)CC2)n2ncc(Cl)c2n1 (centres unmarked) [Example #138, 8-chloro-2-(2,6-difluorophenyl)-N-((1r,4r)-4-(pyrrolidin-1-yl)cyclohexyl)pyrazolo[1,5-a][1,3,5]triazin-4-amine] was tested, and the IC50 [1] was less than 20 nM.

For C#Cc1cnn2c(N[C@H]3CC[C@H](N4CCOCC4)CC3)nc(-c3c(F)cccc3F)nc12 [Example #139, 2-(2,6-difluorophenyl)-8-ethynyl-N-((1r,4r)-4-morpholinocyclohexyl)pyrazolo[1,5-a][1,3,5]triazin-4-amine], the IC50 [1] was less than 200 nM.

Fc1cccc(F)c1-c1nc(N[C@H]2CC[C@H](N3CCOCC3)CC2)n2ncc(I)c2n1 [Example #140, 2-(2,6-difluorophenyl)-8-iodo-N-((1r,4r)-4-morpholinocyclohexyl)pyrazolo[1,5-a][1,3,5]triazin-4-amine] showed an IC50 [1] of less than 200 nM.

Compound CN1CCC(Nc2nc(-c3c(F)cccc3F)nc3c(Cl)cnn23)CC1 [Example #141, 8-chloro-2-(2,6-difluorophenyl)-N-(1-methylpiperidin-4-yl)pyrazolo[1,5-a][1,3,5]triazin-4-amine] has an IC50 [1] of less than 20 nM.

In the case of CN1CCN([C@H]2CC[C@H](Nc3nc(-c4c(F)cccc4F)nc4c(Cl)cnn34)CC2)CC1 [Example #144, 8-chloro-2-(2,6-difluorophenyl)-N-((1r,4r)-4-(4-methylpiperazin-1-yl)cyclohexyl)pyrazolo[1,5-a][1,3,5]triazin-4-amine], the IC50 [1] is reported as less than 20 nM.

Compound Cc1cc(C)c(CNc2nc(-c3c(F)cccc3F)nc3c(Cl)cnn23)cn1 [Example #145, 8-chloro-2-(2,6-difluorophenyl)-N-((4,6-dimethylpyridin-3-yl)methyl)pyrazolo[1,5-a][1,3,5]triazin-4-amine] has an IC50 [1] of less than 20 nM.

Fc1cccc(F)c1-c1nc(NCc2cccnc2)n2ncc(Cl)c2n1 [Example #146, 8-chloro-2-(2,6-difluorophenyl)-N-(pyridin-3-ylmethyl)pyrazolo[1,5-a][1,3,5]triazin-4-amine] gave an IC50 [1] of less than 20 nM.
